Each structure is given as a SMILES string.

For the first assay, the system named is L-M cells. Briefly: NGF production and secretion by L-M cells (Furukawa method), NGF level in medium determined by enzyme immunoassay. The assay is classed as cell-based, mouse. Particulars: Mus musculus; compounds of the invention at 10 γ/ml; L-M cells cultured 24 hours; NGF amount relative to cells not treated with test compound; read-out: % Control. An excerpt: Furukawa et al. reported that L-M cells of a fibroblast cell line from mouse connective tissue can produce and secrete a relatively large amount of NGF, and that catecholamines accelerate such production and secretion of NGF (J. Biol. Chem., 261, 6039-6047, 1986). Following the test method described in this Furukawa paper, but using the compounds of the invention and recognized NGF promoters epinephrine, isoproterenol, L-DOPA, and caffeic acid, NGF production and secretion activities were examined. The test compounds of this invention were employed at 10 γ/ml, and the known compounds were employed at 20 γ/ml.
Culture medium 199 containing 0.5% peptone was used for culturing L-M cells (for the culture medium 199, see, for instance, Morgan et al., Proc. Soc. Exp. Biol. Med., 73, 1 (1950) or Morgan et al. J. Natl. Cancer Inst., 16, 557 (1955). About 5 x 10⁴ of L-M cells were placed in each well of a culture plate with 24 wells, and cultured using a CO₂ incubator (37°C, 5% CO₂) until confluence. After removing the culture medium, the cultured cells were washed once with 199 culture medium containing 0.5% bovine serum albumin (Fraction V, Sigma). The test compounds were added to a specified concentration to a 199 culture medium containing 0.5% bovine serum albumin, and treated with 0.5 ml of L-M cells. After culturing the L-M cells in a CO₂ incubator for 24 hours, the medium was recovered and the NGF level was determined.
NGF was determined using an enzyme immunoassay (Korshing and Thoenen, Proc. Natl. Acad. Sci. USA, 80, 3513-3516, 1983). A solution (each 75 µl) of anti-mouse β-NGF antibody (0.3 µg/ml, pH 9.6; Boehringer Mannheim) was pipetted into each well of a polystyrene plate with 96 wells. After allowing the plate to stand at room temperature for an hour, the antibody was removed by washing three times with detergent solution. A solution (50 µl) of standard β-NGF (Wako Pure Chemical Industries Ltd.) or the recovered medium (50 µl) for each of the test compounds was pipetted into each well. After allowing the plate to stand at room temperature for 6 - 8 hours, the standard β-NGF or test solution was removed and each well was washed three times. A solution (50 µl) of β-NGF monoclonal antibody (100 mU/ml, pH 7.0; Boehringer Mannheim) labelled with β-galactosidase was pipetted into each well. After allowing the plate to stand at 4°C for 15 - 18 hours, enzyme labelled antibody was removed and the wells washed three times followed by pipetting a solution (100 µl) of chlorophenol red-β-D-galactopyranoside (1 mg/ml, pH 7.3; Boehringer Mannheim) into each well. Colour was allowed to develop (2 - 3 hours at room temperature), and the absorbance was determined at 570 nm. The amount of NGF was calculated from a standard curve. The results are expressed as a relative value (%) which is relative to the amount of NGF produced and secreted by cells treated not with the test compounds. The numerical values (% control) are expressed by the mean value in the 3 wells of the control (without addition of the test compounds).
Take `CC(=O)Oc1cc2c(cc1OC(C)=O)CC(C(=O)Nc1ccc(Cl)cc1Cl)CC2` (centres unmarked) [Example 91, N-(2,4-dichlorophenyl)-6,7-diacetoxy-1,2,3,4-tetrahydro-2-naphthamide]: the activity at 10 µg/mL was 575%.

As to `CC(=O)Oc1cc2c(cc1OC(C)=O)CC(C(=O)NC13CC4CC(CC(C4)C1)C3)CC2` (centres unmarked) [Example 93, N-(1-adamantyl)-6,7-diacetoxy-1,2,3,4-tetrahydro-2-naphthamide], the activity at 10 µg/mL amounted to 941%.

On to `CC(=O)Oc1cc2c(cc1OC(C)=O)CCC(C(=O)Nc1ccc(Cl)cc1Cl)=C2` [Example 94, N-(2,4-dichlorophenyl)-6,7-diacetoxy-3,4-dihydro-2-naphthamide], for which the activity at 10 µg/mL stood at 459%.

Take `CC(=O)Oc1cc2c(cc1OC(C)=O)CCC(C(=O)Nc1cnc3ccccc3c1)=C2` [Example 95, N-(3-quinolyl)-6,7-diacetoxy-3,4-dihydro-2-naphthamide]: the activity at 10 µg/mL worked out at 341%.

As for `CC(=O)Oc1cc2c(cc1OC(C)=O)CCC(C(=O)NC13CC4CC(CC(C4)C1)C3)=C2` [Example 96, N-(1-adamantyl)-6,7-diacetoxy-3,4-dihydro-2-naphthamide], the activity at 10 µg/mL amounted to 558%.

The same assay, now with this note: Mus musculus; known compounds at 20 γ/ml; L-M cells cultured 24 hours; NGF amount relative to cells not treated with test compound; read-out: % Control.
On to `N[C@@H](Cc1ccc(O)c(O)c1)C(=O)O` [L-DOPA, reference compound], for which the activity at 20 µg/mL came out at 117 ± 7%.

In the case of `O=C(O)/C=C/c1ccc(O)c(O)c1` [caffeic Acid, caffeic acid, reference compound], the activity at 20 µg/mL was determined as 123 ± 14%.

With `CNC[C@H](O)c1ccc(O)c(O)c1` [epinephrine, reference compound], the activity at 20 µg/mL was 140 ± 24%.

For the compound `CC(C)NCC(O)c1ccc(O)c(O)c1` (centres unmarked) [isoproterenol, reference compound], the activity at 20 µg/mL turned out to be 168 ± 22%.

The assay is the same for the next values; noted with them: compounds of the invention at 10 γ/ml; L-M cells cultured 24 hours; NGF amount relative to cells not treated with test compound.
On to `CC(=O)Oc1ccc(CCC(=O)Nc2cc(Cl)ccc2Cl)cc1OC(C)=O` [Example 1, N-(2,5-dichlorophenyl)-3,4-diacetoxyphenylpropionamide], for which the “% Control” value is on record as 201%.

Turning to `CC(=O)Oc1ccc(CCCC(=O)NC23CC4CC(CC(C4)C2)C3)cc1OC(C)=O` [Example 46, N-(1-adamantyl)-3,4-diacetoxyphenylbutyrylamide], the “% Control” value is 939%.

The values are drawn from EP0399814A2, “Phenol derivatives for promoting human nerve growth factor” (Sankyo Company Limited, priority 1989, dated 1990).
